Test results: patent publication US10669238B2, “Irreversible bruton's tyrosine kinase inhibitor” (HEFEI INSTITUTES OF PHYSICAL SCIENCE, CHINESE ACADEMY OF …, priority 2016, dated 2020)
pEC50, pIC50: −log10 of the molar value.

Legend:
[1] = system: diffuse large B-cell lymphoma cell lines TMD8; assay: Cell proliferation (Cell Titer-Glo), TMD8; format: cell-based; conditions: Homo sapiens, TMD8, 72 h, read-out: Effects on cell proliferation (GI50)
Excerpt: The following cells were adopted in the example: acute myelocytic leukemia cell strains (acute myelocytic leukemia, AML) HL-60, B-lymphoma cell Ramos, colon cancer cells HCT116, leukemic cells K562, B-cell lymphoma cells U2932, diffuse large B-cell lymphoma cell line OCI-LY10, diffuse histiocytic lymphoma cells SU-DHL-2, diffuse large B-cell lymphoma cell lines TMD8, leukemia cell OCI-AML-3, acute promyelocytic leukemia cell line NB-4 (Lu+), MDS-RAEB (myelodysplastic syndrome—excessive blasts) cell lines SKM-1, human leukocyte leukemia cells HEL, acute myeloid leukemia cell lines (acute myelocytic leukemia, AML) U937, acute myeloid leukemia cell lines (acute myelocytic leukemia, AML) MOLM14, acute myeloid leukemia cell lines (acute myelocytic leukemia, AML) MOLM13, acute myeloid leukemia cell lines (acute myelocytic leukemia, AML) M-07e, acute myeloid leukemia cell lines (acute myelocytic leukemia, AML) MV4-11, acute myeloid leukemia cell lines (acute myelocytic leukemia, AML) MOLM16, diffuse large B-cell lymphoma cell lines Pfeiffer, multiple myeloma cell lines (multiple myeloma) RPM18226, bone marrow plasma cell tumor cells AMO-1, mouse pro-B cells BaF3, all purchased from ATCC.
In this example different concentrations (0.000508 μM, 0.00152 μM, 0.00457 μM, 0.0137 μM, 0.0411 μM, 0.123 μM, 0.370 μM, 1.11 μM, 3.33 μM, 10 μM) of Compound 1 and Compound 6 were respectively added into the above cells which were then cultured for 72 hours. The number of viable cells was determined via quantitative determination of ATP in living cells by using Cell Titer-Glo® (Promega, the USA) Chemical Luminescent Cell Viability Assay kit.

[2] = system: phosphorylation of tyrosine Y223 on Btk; assay: Effects on BTK Y223 and downstream signaling pathway proteins in cells (anti-IgM stimulation); format: cell-based, human; conditions: Compound 1 in MEC-2, Pfeiffer, Ramos, TMD8, U2932; Compound 35 in MEC-1; 4 hours, then anti-IgM 10 mins
Excerpt: By assaying a number of cellular biochemical and functional endpoints, the properties of the compounds were further characterized. […] In this experiment, PC132765 (purchased from Shanghai Haoyuan Chemexpress Co., Ltd.), CGI11746 (purchased from Shanghai Haoyuan Chemexpress Co., Ltd.) and Compound 6 (prepared herein) were used as control (see FIGS. 2a-2f).
Effects of the compounds on phosphorylation of BTKY223, BTKY551, PLCγ1Y783, PLCγ2Y759, PLCγ2Y1217, P—NF-κB P65, P-AKT Ser473, Erk Thr202/Tyr204 and the like were determined (FIGS. 2a-2f).

BTK WT = BTK WT (Homo sapiens, UniProt Q06187); assay: Btk cell-free kinase assay, BTK WT protein; format: biochemical; conditions: compound 30 mins at room temperature, then 100 μM ATP 20 min at 37° C.; read-out: EC50 against BTK WT protein
Chain of BTK WT (Q06187 whole entry): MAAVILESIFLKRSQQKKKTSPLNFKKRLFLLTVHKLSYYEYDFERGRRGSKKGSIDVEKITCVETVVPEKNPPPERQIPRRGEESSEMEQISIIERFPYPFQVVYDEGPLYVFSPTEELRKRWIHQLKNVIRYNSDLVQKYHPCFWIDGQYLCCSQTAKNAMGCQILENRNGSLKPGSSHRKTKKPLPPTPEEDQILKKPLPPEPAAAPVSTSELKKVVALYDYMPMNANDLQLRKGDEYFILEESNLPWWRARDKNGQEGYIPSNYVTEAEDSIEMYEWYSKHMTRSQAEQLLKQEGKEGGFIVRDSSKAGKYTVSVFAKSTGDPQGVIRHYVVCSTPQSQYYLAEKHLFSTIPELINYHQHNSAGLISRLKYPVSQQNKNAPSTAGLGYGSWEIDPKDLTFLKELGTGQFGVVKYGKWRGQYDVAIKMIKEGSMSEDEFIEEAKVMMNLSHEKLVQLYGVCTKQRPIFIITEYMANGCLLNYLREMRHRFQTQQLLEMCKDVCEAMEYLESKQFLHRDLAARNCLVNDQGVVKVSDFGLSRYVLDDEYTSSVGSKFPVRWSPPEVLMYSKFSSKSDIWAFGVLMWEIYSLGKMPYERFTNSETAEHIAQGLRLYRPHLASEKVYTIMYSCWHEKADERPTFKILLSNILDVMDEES
Excerpt: (§1) The BTK wild-type plasmid and the BTK mutant plasmid (C481S) were respectively transfected into SF9 cells (purchased from invitrogen), and after three generations of virus amplification, the P3-generation virus was used to transfect SF9 cells which were collected after 72-hour culture to obtain protein BTK WT and protein BTK C481S, which were then purified.

BTK protein kinase = BTK protein kinase (Homo sapiens, UniProt Q06187); assay: In vitro enzymatic activity against BTK (ADP-Glo); format: biochemical; conditions: compound with BTK 4 hours at room temperature, ATP 10 μM, 37° C. 1 hour; for IC50: values in nM
Chain of BTK protein kinase (Q06187 whole entry): as above
Procedure, shortened: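 BTK (1.5 ng/μL enzyme solution) was preincubated with compound (final 10 μM to 0.003 μM) for 4 h at room temperature. Reaction ran 1 h at 37 °C with 10 μM ATP and 0.2 μg/μL poly(Glu,Tyr) 4:1 (final). ADP formed was measured by ADP-Glo luminescence, and IC50 was obtained by curve plotting.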

BTK C481S = target: T1, BTK C481S (Homo sapiens, UniProt Q06187, C481S); assay: Btk cell-free kinase assay, BTK C481S mutant protein; format: biochemical; conditions: compound 30 mins at room temperature, then 100 μM ATP 20 min at 37° C.; read-out: EC50 against BTK C481S
T1 construct: made in house; host or cells: SF9 insect cells
T1 sequence (Q06187 whole entry C481S): as the sequence (Q06187 whole entry) above, with C481S counted along it
Excerpt: as §1

Structure (SMILES) | IC50 (BTK protein kinase) | further results
Cc1c(NC(=O)c2ccc(C(C)(C)C)cc2)cccc1-c1cn(C)c(=O)c(Nc2ccc(C(=O)N3CCOCC3)cc2)n1 [CGI1746, reference compound] | – | GI50 [1]: 126 nM
C=CC(=O)Nc1cc(Nc2cc(-c3cccc(NC(=O)c4ccc(N(C)C)cc4)c3C)cn(C)c2=O)ccc1C(=O)N1CCOCC1 [Compound 35, N-(3-(5-((3-acrylamide-4-(morpholin-4-carbonyl)phenyl)amino)-1-methyl-6-oxo-1,6-dihydropyridin-3-yl)-2-methylphenyl)-4-(dimethylamino)benzoylamide] | 5 nM | phosphorylation of tyrosine Y223 on Btk [2]: selectively and significantly inhibit phosphorylation of tyrosine Y223 on Btk; pEC50 (BTK WT): 7.80; pEC50 (BTK C481S): 6.73
C=CC(=O)Nc1cc(Nc2cc(-c3cccc(NC(=O)c4cc5ccccc5s4)c3C)cn(C)c2=O)ccc1N1CCC(OC)CC1 [Compound 87, N-(3-(5-((3-acrylamide-4-(4-methoxypiperidin-1-yl)phenyl)amino)-1-methyl-6-oxo-1,6-dihydropyridin-3-yl)-2-methylphenyl)benzo[b]thiophene-2-carboxamide] | – | pIC50 (BTK protein kinase; value printed in nm): 6.90
C=CC(=O)Nc1cc(Nc2cc(-c3cccc(NC(=O)c4cc5c(s4)CCCC5)c3C)cn(C)c2=O)ccc1N1CCC(OC)CC1 [Compound 88, N-(3-(5-((3-acrylamide-4-(4-methoxypiperidin-1-yl)phenyl)amino)-1-methyl-6-oxo-1,6-dihydropyridin-3-yl)-2-methylphenyl)-4,5,6,7-tetrahydrobenzo[b]thiophene-2-carboxamide] | 167 nM | –
C=CC(=O)Nc1cc(Nc2cc(-c3cccc(NC(=O)c4cc5c(s4)CCCC5)c3C)cn(C)c2=O)ccc1N1CCN(C(C)C)CC1 [Compound 89, N-(3-(5-((3-acrylamide-4-(4-isopropylpiperazin-1-yl)phenyl)amino)-1-methyl-6-oxo-1,6-dihydropyridin-3-yl)-2-methylphenyl)-4,5,6,7-tetrahydrobenzo[b]thiophene-2-carboxamide] | 23.1 nM | –
C=CC(=O)Nc1cc(Nc2cc(-c3cccc(NC(=O)c4cc5ccccc5s4)c3C)cn(C)c2=O)ccc1N1CCN(C(C)C)CC1 [Compound 90, N-(3-(5-((3-acrylamide-4-(4-isopropylpiperazin-1-yl)phenyl)amino)-1-methyl-6-oxo-1,6-dihydropyridin-3-yl)-2-methylphenyl)benzo[b]thiophene-2-carboxamide] | 6.5 nM | –
C=CC(=O)Nc1cc(Nc2cc(-c3cccc(NC(=O)c4cc5ccccc5s4)c3C)cn(C)c2=O)ccc1N1CCN(CC)CC1 [Compound 91, N-(3-(5-((3-acrylamide-4-(4-ethylpiperazin-1-yl)phenyl)amino)-1-methyl-6-oxo-1,6-dihydropyridin-3-yl)-2-methylphenyl)benzo[b]thiophene-2-carboxamide] | 156 nM | –
C=CC(=O)Nc1cc(Nc2cc(-c3cccc(NC(=O)c4cc5ccccc5s4)c3C)cn(C)c2=O)ccc1N1CCN(C(C)=O)CC1 [Compound 92, N-(3-(5-((4-(4-acetylpiperazin-1-yl)-3-acrylamidephenyl)amino)-1-methyl-6-oxo-1,6-dihydropyridin-3-yl)-2-methylphenyl)benzo[b]thiophene-2-carboxamide] | 71.7 nM | –
C=CC(=O)Nc1cc(Nc2cc(-c3cccc(NC(=O)c4cc5ccccc5s4)c3C)cn(C)c2=O)ccc1N(C)C [Compound 93, N-(3-(5-((3-acrylamide-4-(dimethylamino)phenyl)amino)-1-methyl-6-oxo-1,6-dihydropyridin-3-yl)-2-methylphenyl)benzo[b]thiophene-2-carboxamide] | 15.4 nM | –
C=CC(=O)N1CCC[C@@H](n2nc(-c3ccc(Oc4ccccc4)cc3)c3c(N)ncnc32)C1 [PCI32765, reference compound] | – | GI50 [1]: 1 nM
